According to US20250213525A1, “Atopic Dermatitis Improving Agent, Interleukin Production Inhibitor, and Inhibitor of Expression of Interleukin Gene” (PIAS CORPORATION, priority 2022, published 2025):

How the values were obtained:
Assay type in all cases: cell-based
[1] = system: interleukin-1α (IL-1α) gene; assay: Inhibition of IL-1α gene expression in PMA-stimulated NHEK (real time PCR); settings: Normal Human Epidermal Keratinocytes, PMA 25 ng/mL, 3 hours, compound 10 to 20 μM, GAPDH internal standard; FIG. 2 and FIG. 5
[2] = system: interleukin-1β (IL-1β) gene; assay: Inhibition of IL-1β gene expression in PMA-stimulated NHEK (real time PCR); settings: Normal Human Epidermal Keratinocytes, PMA 25 ng/mL, 3 hours, compound 10 to 20 μM, GAPDH internal standard; FIG. 3 and FIG. 6
[3] = system: interleukin-33 (IL-33) gene; assay: Inhibition of IL-33 gene expression in PMA-stimulated NHEK (real time PCR); settings: Normal Human Epidermal Keratinocytes, PMA 25 ng/mL, 3 hours, compound 10 to 20 μM, GAPDH internal standard; FIG. 1 and FIG. 4
Method: The following provides the details of in vitro tests. 6×10^4 cells of Normal Human Epidermal Keratinocytes (NHEK manufactured by KURABO INDUSTRIES LTD.) were seeded on a 12 well plate and cultured at 37° C. under 5% CO2 conditions for 72 hours. The incubation medium was removed and then replaced by a culture medium including the following inflammatory stimulating substance (final concentration: 25 ng/mL) and the individual compound used in each of the above Test Examples, followed by further culturing at 37° C. under 5% CO2 conditions for 3 hours. Thereafter, total RNA was purified from cells according to the instruction manual of product name “PureLink RNA Mini kit” (INVITROGEN), and RNA purified using the test kit “ReverTra Ace™ qPCR RT Master Mix (manufactured by TOYOBO CO., LTD.)” was reverse-transcribed to cDNA. For the cDNA, IL-33 mRNA expression level was quantitatively evaluated by a real time PCR method. Glyceraldehyde-3-phosphate dehydrogenase (GAPDH) was used as an internal standard calibration. The compounds used in Test Examples were dissolved in dimethyl sulfoxide (DMSO) to prepare the individual stocks, and then respectively dissolved in the culture media to have a concentration of 10 to 20 μM. At this time, dilution was performed to allow DMSO to have a concentration (1% or less) at which no cytotoxicity is caused. […]

CCCCCCCCCCCCCCCC(=O)OC[C@H](O)[C@H]1OC(=O)C(OCC(O)CO)=C1O (stereo partly drawn) [2-O-glyceryl-6-O-hexadecanoyl ascorbic acid]
inhibited: expression of interleukin-1α (IL-1α) gene [1] | expression of interleukin-1β (IL-1β) gene [2] | IL-33 mRNA expression level [3]
